{"source": "patent US20140228318A1", "about": "“Curcumin formulations and methods for making such formulations” (Sanford Research/USD, priority 2010, published 2014)", "format_in_all_cases": "cell-based", "key": {"[1]": {"system": "C4-2 prostate cancer cells", "test": "Colony formation (clonogenic) assay", "details": "C4-2, 2 μM, 10 day period", "experimental": "(§1) Prostate cancer cells (1000) were seeded in 2 mL media in 6-well plates and allowed 2-3 days to attach and initiate the colony formations. […] The plates were then washed twice with PBS, fixed in chilled methanol, stained with hematoxylin (Fisher Scientific, Fair Lawn, N.J., USA), washed with water and air dried. The number of colonies was counted by a MultiImage™ Cabinet (Alpha Innotech Corporation, San Leandro, Calif., USA) using AlphaEase Fc software. The percent of colonies was calculated using the number of colonies formed in treatment divided by number of colonies formed in DMSO or CD in PBS controls."}, "[2]": {"system": "DU145 prostate cancer cells", "test": "Colony formation (clonogenic) assay", "details": "DU145, 2 μM, 10 day period", "experimental": "as §1"}, "[3]": {"system": "C4-2 prostate cancer cells", "test": "In vitro cytotoxicity / cell proliferation (MTS assay)", "details": "48 h, C4-2, 2 days, read-out: IC50 (concentration of drug required to kill 50% of cells)", "experimental": "(§2) To examine the anti-cancer activity of the CD-CUR inclusion complex (CD-30), cell proliferation assays were performed using C4-2 and DU145 prostate cancer cell lines. Prostate cancer cells (5000 cells/well in 100 μL media) were seeded in 96-well plates and allowed to attach overnight. […] Media containing equivalent amounts of CD in PBS or DMSO was used as the control. […] The reagent (25 μL/well) was added to each well and plates were incubated for 3 hrs at 37° C. The color intensity was measured at 492 nm using a microplate reader (BioMate 3 UV-Vis spectrophotometer, Thermo Electron Corporation, Hudson, N.H.). […] Just before adding MTS reagents, representative phase contrast microscope images of cells were taken using an Olympus BX 41 microscope (Olympus, Center Valley, Pa., USA)."}, "[4]": {"system": "DU145 prostate cancer cells", "test": "In vitro cytotoxicity / cell proliferation (MTS assay)", "details": "Homo sapiens, DU-145, 48 h, DU145, 2 days, read-out: IC50 (concentration of drug required to kill 50% of cells)", "experimental": "as §2"}}}
{"smiles": "COc1cc(/C=C/C(=O)CC(=O)/C=C/c2ccc(O)c(OC)c2)ccc1O", "note": "[CUR, bis(4-hydroxy-3-methoxyphenyl)-1,6-diene-3,5-dione]", "values": [{"measurement": "colonies, percent of DMSO or CD control", "setting": "[1]", "value": 96, "unit": "%"}, {"measurement": "colonies, percent of DMSO or CD control", "setting": "[2]", "value": 74, "unit": "%"}, {"measurement": "IC50", "setting": "[3]", "value": 19.6, "unit": "µM"}, {"measurement": "IC50", "setting": "[4]", "value": 18.4, "unit": "µM"}]}
